Assay results taken from patent publication US20170165239A1, “USE OF BETA-CARBOLINE ALKALOID IN INHIBITING XANTHINE OXIDASE ACTIVITY” (Food Industry Research And Development Institute, priority 2015, published 2017).

Target: xanthine oxidase (Homo sapiens, UniProt P47989)
Test: Xanthine oxidase inhibitory activity measured by HPLC (xanthine content)
Assay type: biochemical
Settings: Flazin samples 0.625-20.0 mg/ml; xanthine 50 μg/ml, xanthine oxidase 0.1 U, 30° C., 30 min; FIG. 1
Protocol: Xanthine oxidase inhibitory activity was measured as follows. Firstly, concentrations (0.625, 1.25, 2.5, 5.0, 10.0 and 20.0 mg/ml) of Flazin samples were prepared. Then, xanthine oxidase inhibitory activity was measured by HPLC by the following procedure. In a reaction tube, 880 μl of xanthine (50 μg/ml in 100 mM PBS) and 40 μl of 50 mM PBS or 40 μl of the Flazin samples were premixed, and 80 μl […] of xanthine oxidase (0.1 U) was added to initiate the reaction. The reaction was incubated at 30° C. for 30 min., after which an equal volume of absolute ethanol was added to terminate the reaction. The terminated reaction was filtered through a 0.22 μm membrane filter and the content of xanthine in the reactions was analyzed by HPLC. Xanthine oxidase inhibitory activity of the samples was calculated as follows: […]

Sequence of xanthine oxidase (P47989 whole entry, species assumed): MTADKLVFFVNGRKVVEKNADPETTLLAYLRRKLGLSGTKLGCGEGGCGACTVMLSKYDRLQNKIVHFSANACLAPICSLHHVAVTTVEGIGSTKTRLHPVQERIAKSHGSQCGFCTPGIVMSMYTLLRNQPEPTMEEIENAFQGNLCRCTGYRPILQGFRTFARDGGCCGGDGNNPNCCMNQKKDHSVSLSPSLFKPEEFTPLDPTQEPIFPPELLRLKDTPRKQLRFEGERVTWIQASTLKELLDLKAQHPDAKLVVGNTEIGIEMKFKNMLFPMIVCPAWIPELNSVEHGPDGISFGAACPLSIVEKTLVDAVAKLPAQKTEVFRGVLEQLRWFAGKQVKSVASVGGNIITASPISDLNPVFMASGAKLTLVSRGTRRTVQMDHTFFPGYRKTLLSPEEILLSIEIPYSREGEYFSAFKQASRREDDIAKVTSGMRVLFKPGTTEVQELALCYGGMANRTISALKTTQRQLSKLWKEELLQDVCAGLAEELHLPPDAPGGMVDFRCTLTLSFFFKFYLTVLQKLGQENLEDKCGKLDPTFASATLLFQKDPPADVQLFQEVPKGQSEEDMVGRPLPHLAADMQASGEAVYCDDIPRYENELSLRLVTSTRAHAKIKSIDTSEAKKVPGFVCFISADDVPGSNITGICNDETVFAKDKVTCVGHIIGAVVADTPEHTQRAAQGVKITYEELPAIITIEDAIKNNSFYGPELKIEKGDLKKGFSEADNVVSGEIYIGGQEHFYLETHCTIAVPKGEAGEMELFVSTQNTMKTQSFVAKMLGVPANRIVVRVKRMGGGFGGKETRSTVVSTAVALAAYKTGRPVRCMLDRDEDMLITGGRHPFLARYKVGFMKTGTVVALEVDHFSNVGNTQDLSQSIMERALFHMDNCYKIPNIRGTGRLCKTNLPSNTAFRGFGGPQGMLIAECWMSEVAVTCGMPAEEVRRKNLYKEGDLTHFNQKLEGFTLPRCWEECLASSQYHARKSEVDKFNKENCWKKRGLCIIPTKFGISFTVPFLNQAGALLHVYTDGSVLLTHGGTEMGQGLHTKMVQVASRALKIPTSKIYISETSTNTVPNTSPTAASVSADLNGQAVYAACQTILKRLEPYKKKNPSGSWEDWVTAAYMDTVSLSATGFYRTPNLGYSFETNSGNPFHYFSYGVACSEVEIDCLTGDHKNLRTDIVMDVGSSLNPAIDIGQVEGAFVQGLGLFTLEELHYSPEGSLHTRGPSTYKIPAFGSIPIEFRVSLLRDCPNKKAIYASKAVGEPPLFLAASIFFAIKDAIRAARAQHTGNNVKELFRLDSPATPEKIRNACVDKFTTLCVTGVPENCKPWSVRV

IC50: ~32.1 mM
SMILES: O=C(O)c1cc2c([nH]c3ccccc32)c(-c2ccc(CO)o2)n1 [Flazin, 1-[5-(hydroxymethyl)furan-2-yl]-9H-pyrido[3,4-b]indole-3-carboxylic acid]
